Results from ChEMBL document CHEMBL5584201, “Amphiphilic tribasic galactosamines potentiate rifampicin in Gram-negative bacteria at low Mg++/Ca++concentrations” (Bioorg Med Chem Lett, 2024).
Converted amounts (≈) assume the structure as drawn. The source made the active and inactive calls. The rule behind the calls is not given here.

Experiments:
Pseudomonas aeruginosa [1] = assay: Antibacterial activity against Pseudomonas aeruginosa PAO1 in low salt containing media by Mueller-Hinton broth based assay; assay type: functional
Acinetobacter baumannii [2] = assay: Antibacterial activity against Acinetobacter baumannii ATCC 17978 in low salt containing media by Mueller-Hinton broth based assay; assay type: functional
Escherichia coli [3] = assay: Antibacterial activity against Escherichia coli ATCC 25922 in low salt containing media by Mueller-Hinton broth based assay; assay type: functional
Pseudomonas aeruginosa [4] = assay: Potentiation of rifampicin-induced antibacterial activity against Pseudomonas aeruginosa PAO1 assessed as rifampicin MIC in low salt containing media by Mueller-Hinton broth based assay; assay type: functional
Acinetobacter baumannii [5] = assay: Potentiation of rifampicin-induced antibacterial activity against Acinetobacter baumannii ATCC 17978 assessed as rifampicin MIC in low salt containing media by Mueller-Hinton broth based assay; assay type: functional
Escherichia coli [6] = assay: Potentiation of rifampicin-induced antibacterial activity against Escherichia coli ATCC 25922 assessed as rifampicin MIC in low salt containing media by Mueller-Hinton broth based assay; assay type: functional
Pseudomonas aeruginosa [7] = assay: Potentiation of rifampicin-induced antibacterial activity against Pseudomonas aeruginosa PAO1 assessed as fold change in rifampicin MIC in low salt containing media by Mueller-Hinton broth based assay; assay type: functional
Acinetobacter baumannii [8] = assay: Potentiation of rifampicin-induced antibacterial activity against Acinetobacter baumannii ATCC 17978 assessed as fold change in rifampicin MIC in low salt containing media by Mueller-Hinton broth based assay; assay type: functional
Escherichia coli [9] = assay: Potentiation of rifampicin-induced antibacterial activity against Escherichia coli ATCC 25922 assessed as fold change in rifampicin MIC in low salt containing media by Mueller-Hinton broth based assay; assay type: functional
Acinetobacter baumannii [10] = assay: Antibacterial activity against Acinetobacter baumannii ATCC 17978 in high concentration of Ca++ and Mg++ containing media by Mueller-Hinton broth based assay; assay type: functional
Acinetobacter baumannii [11] = assay: Antibacterial activity against Acinetobacter baumannii 92247 in high concentration of Ca++ and Mg++ containing media by Mueller-Hinton broth based assay; assay type: functional
Escherichia coli [12] = assay: Antibacterial activity against Escherichia coli ATCC 25922 in high concentration of Ca++ and Mg++ containing media by Mueller-Hinton broth based assay; assay type: functional
Escherichia coli [13] = assay: Antibacterial activity against Escherichia coli […] in high concentration of Ca++ and Mg++ containing media by Mueller-Hinton broth based assay; assay type: functional
Acinetobacter baumannii [14] = assay: Potentiation of rifampicin-induced antibacterial activity against Acinetobacter baumannii ATCC 17978 assessed as rifampicin MIC at 2 to 8 microg/ml in high concentration of Ca++ and Mg++ containing media by Mueller-Hinton broth based assay; assay type: functional; details: dose 2-8 µg/ml
Acinetobacter baumannii [15] = assay: Potentiation of rifampicin-induced antibacterial activity against Acinetobacter baumannii 92247 assessed as rifampicin MIC at 2 to 8 microg/ml in high concentration of Ca++ and Mg++ containing media by Mueller-Hinton broth based assay; assay type: functional; details: dose 2-8 µg/ml
Escherichia coli [16] = assay: Potentiation of rifampicin-induced antibacterial activity against Escherichia coli ATCC 25922 assessed as rifampicin MIC at 2 to 8 microg/ml in high concentration of Ca++ and Mg++ containing media by Mueller-Hinton broth based assay; assay type: functional; details: dose 2-8 µg/ml
Escherichia coli [17] = assay: Potentiation of rifampicin-induced antibacterial activity against Escherichia coli […] assessed as rifampicin MIC at 2 to 8 microg/ml in high concentration of Ca++ and Mg++ containing media by Mueller-Hinton broth based assay; assay type: functional; details: dose 2-8 µg/ml
Acinetobacter baumannii [18] = assay: Potentiation of rifampicin-induced antibacterial activity against Acinetobacter baumannii ATCC 17978 assessed as fold change in rifampicin MIC at 2 to 8 microg/ml in high concentration of Ca++ and Mg++ containing media by Mueller-Hinton broth based assay; assay type: functional; details: dose 2-8 µg/ml
Acinetobacter baumannii [19] = assay: Potentiation of rifampicin-induced antibacterial activity against Acinetobacter baumannii 92247 assessed as fold change in rifampicin MIC at 2 to 8 microg/ml in high concentration of Ca++ and Mg++ containing media by Mueller-Hinton broth based assay; assay type: functional; details: dose 2-8 µg/ml
Escherichia coli [20] = assay: Potentiation of rifampicin-induced antibacterial activity against Escherichia coli ATCC 25922 assessed as fold change in rifampicin MIC at 2 to 8 microg/ml in high concentration of Ca++ and Mg++ containing media by Mueller-Hinton broth based assay; assay type: functional; details: dose 2-8 µg/ml
Escherichia coli [21] = assay: Potentiation of rifampicin-induced antibacterial activity against Escherichia coli […] assessed as fold change in rifampicin MIC at 2 to 8 microg/ml in high concentration of Ca++ and Mg++ containing media by Mueller-Hinton broth based assay; assay type: functional; details: dose 2-8 µg/ml
Acinetobacter baumannii [22] = assay: Potentiation of rifampicin-induced antibacterial activity against Acinetobacter baumannii ATCC 17978 assessed as rifampicin MIC at 16 microg/ml in high concentration of Ca++ and Mg++ containing media by Mueller-Hinton broth based assay; assay type: functional; details: dose 16 µg/ml
Acinetobacter baumannii [23] = assay: Potentiation of rifampicin-induced antibacterial activity against Acinetobacter baumannii 92247 assessed as rifampicin MIC at 16 microg/ml in high concentration of Ca++ and Mg++ containing media by Mueller-Hinton broth based assay; assay type: functional; details: dose 16 µg/ml
Escherichia coli [24] = assay: Potentiation of rifampicin-induced antibacterial activity against Escherichia coli ATCC 25922 assessed as rifampicin MIC at 16 microg/ml in high concentration of Ca++ and Mg++ containing media by Mueller-Hinton broth based assay; assay type: functional; details: dose 16 µg/ml
Escherichia coli [25] = assay: Potentiation of rifampicin-induced antibacterial activity against Escherichia coli […] assessed as rifampicin MIC at 16 microg/ml in high concentration of Ca++ and Mg++ containing media by Mueller-Hinton broth based assay; assay type: functional; details: dose 16 µg/ml
Acinetobacter baumannii [26] = assay: Potentiation of rifampicin-induced antibacterial activity against Acinetobacter baumannii ATCC 17978 assessed as fold change in rifampicin MIC at 16 microg/ml in high concentration of Ca++ and Mg++ containing media by Mueller-Hinton broth based assay; assay type: functional; details: dose 16 µg/ml
Acinetobacter baumannii [27] = assay: Potentiation of rifampicin-induced antibacterial activity against Acinetobacter baumannii 92247 assessed as fold change in rifampicin MIC at 16 microg/ml in high concentration of Ca++ and Mg++ containing media by Mueller-Hinton broth based assay; assay type: functional; details: dose 16 µg/ml
Escherichia coli [28] = assay: Potentiation of rifampicin-induced antibacterial activity against Escherichia coli ATCC 25922 assessed as fold change in rifampicin MIC at 16 microg/ml in high concentration of Ca++ and Mg++ containing media by Mueller-Hinton broth based assay; assay type: functional; details: dose 16 µg/ml
Escherichia coli [29] = assay: Potentiation of rifampicin-induced antibacterial activity against Escherichia coli […] assessed as fold change in rifampicin MIC at 16 microg/ml in high concentration of Ca++ and Mg++ containing media by Mueller-Hinton broth based assay; assay type: functional; details: dose 16 µg/ml
[30] = Cytotoxicity against HEK293 cells assessed as cell viability at 9 uM relative to control; assay type: toxicity, cell-based; details: human, read-out: Activity
[31] = Cytotoxicity against human HepG2 cells assessed as cell viability at 9 uM relative to control; assay type: toxicity, cell-based; details: read-out: Activity
Acinetobacter baumannii [32] = assay: Potentiation of rifampicin-induced antibacterial activity against multidrug resistant Acinetobacter baumannii AB027 at 1/4 MIC in low salt containing media by Mueller-Hinton broth based assay; assay type: functional, organism-based
Acinetobacter baumannii [33] = assay: Potentiation of rifampicin-induced antibacterial activity against multidrug resistant Acinetobacter baumannii AB031 at 1/4 MIC in low salt containing media by Mueller-Hinton broth based assay; assay type: functional, organism-based
Acinetobacter baumannii [34] = assay: Potentiation of rifampicin-induced antibacterial activity against multidrug resistant Acinetobacter baumannii clinical isolate 92247 at 1/4 MIC in low salt containing media by Mueller-Hinton broth based assay; assay type: functional, organism-based
Acinetobacter baumannii [35] = assay: Potentiation of rifampicin-induced antibacterial activity against multidrug resistant Acinetobacter baumannii clinical isolate 110193 at 1/4 MIC in low salt containing media by Mueller-Hinton broth based assay; assay type: functional, organism-based
Acinetobacter baumannii [36] = assay: Potentiation of rifampicin-induced antibacterial activity against multidrug resistant Acinetobacter baumannii LAC-4 in low salt containing media by Mueller-Hinton broth based assay; assay type: functional, organism-based
Escherichia coli [37] = assay: Potentiation of rifampicin-induced antibacterial activity against Escherichia coli clinical isolate 94393 at 1/4 MIC in low salt containing media by Mueller-Hinton broth based assay; assay type: functional, organism-based
Escherichia coli [38] = assay: Potentiation of rifampicin-induced antibacterial activity against Escherichia coli clinical isolate 94474 at 1/4 MIC in low salt containing media by Mueller-Hinton broth based assay; assay type: functional, organism-based
Escherichia coli [39] = assay: Potentiation of rifampicin-induced antibacterial activity against Escherichia coli clinical isolate 107115 at 1/4 MIC in low salt containing media by Mueller-Hinton broth based assay; assay type: functional, organism-based

MIC (Pseudomonas aeruginosa [1]) [µg/mL]	MIC (Acinetobacter baumannii [2]) [µg/mL]	MIC (Escherichia coli [3]) [µg/mL]	MIC (Pseudomonas aeruginosa [4]) [µg/mL]	MIC (Acinetobacter baumannii [5]) [µg/mL]	MIC (Escherichia coli [6]) [µg/mL]	Structure (SMILES)	fold change (FC) (Pseudomonas aeruginosa [7])	fold change (FC) (Acinetobacter baumannii [8])	fold change (FC) (Escherichia coli [9])	MIC (Acinetobacter baumannii [10]) [µg/mL]	MIC (Acinetobacter baumannii [11]) [µg/mL]	MIC (Escherichia coli [12]) [µg/mL]	MIC (Escherichia coli [13]) [µg/mL]	MIC (Acinetobacter baumannii [14]) [µg/mL]	MIC (Acinetobacter baumannii [15]) [µg/mL]	MIC (Escherichia coli [16]) [µg/mL]	MIC (Escherichia coli [17]) [µg/mL]	fold change (FC) (Acinetobacter baumannii [18])	fold change (FC) (Acinetobacter baumannii [19])	fold change (FC) (Escherichia coli [20])	further results
32	16	8	8	4	2	CCCCCCCCO[C@H]1[C@@H](N)[C@@H](CN=[N+]=[N-])O[C@H](OCc2ccc3ccccc3c2)[C@@H]1N	8	>=256	64	> 128	128 (≈ 281 µM)	128 (≈ 281 µM)	128 (≈ 281 µM)	4	4	2	2	2	4	1	fold change (FC) (Escherichia coli [21]): 1; MIC (Acinetobacter baumannii [22]): 16 µg/mL; MIC (Acinetobacter baumannii [23]): 16 µg/mL; MIC (Escherichia coli [24]): 16 µg/mL; MIC (Escherichia coli [25]): 16 µg/mL; fold change (FC) (Acinetobacter baumannii [26]): 4; fold change (FC) (Acinetobacter baumannii [27]): 64; fold change (FC) (Escherichia coli [28]): 16; fold change (FC) (Escherichia coli [29]): 64; viability at 9 µM [30]: 31.7%; viability at 9 µM [31]: 46%
> 128	128	64	16	16	16	CCCCCCO[C@@H]1O[C@H](CN)[C@H](N)[C@H](OCc2ccc3ccccc3c2)[C@H]1N	1	32	32												
> 128	> 128	64	16	16	16	CCCCCCCCO[C@@H]1O[C@H](CN)[C@H](N)[C@H](OCc2ccccc2)[C@H]1N	1	16	16												

Structure (SMILES)	MIC (Pseudomonas aeruginosa [1]) [µg/mL]	MIC (Acinetobacter baumannii [2]) [µg/mL]	MIC (Escherichia coli [3]) [µg/mL]	MIC (Pseudomonas aeruginosa [4]) [µg/mL]	MIC (Acinetobacter baumannii [5]) [µg/mL]	MIC (Escherichia coli [6]) [µg/mL]	fold change (FC) (Pseudomonas aeruginosa [7])	fold change (FC) (Acinetobacter baumannii [8])	fold change (FC) (Escherichia coli [9])	MIC (Acinetobacter baumannii [10]) [µg/mL]	MIC (Acinetobacter baumannii [11]) [µg/mL]	MIC (Escherichia coli [12]) [µg/mL]	MIC (Escherichia coli [13]) [µg/mL]	MIC (Acinetobacter baumannii [14]) [µg/mL]	MIC (Acinetobacter baumannii [15]) [µg/mL]	MIC (Escherichia coli [16]) [µg/mL]	MIC (Escherichia coli [17]) [µg/mL]	fold change (FC) (Acinetobacter baumannii [18])	fold change (FC) (Acinetobacter baumannii [19])	fold change (FC) (Escherichia coli [20])	further results
NC[C@H]1O[C@@H](OCCC23CC4CC(CC(C4)C2)C3)[C@H](N)[C@@H](OCc2ccc3ccccc3c2)[C@H]1N	32	16	8	8	4	2	2	>=256	16	> 128	> 128	> 128	> 128	4	2	2	4	1	2	1	Activity (Acinetobacter baumannii [32]): inactive; Activity (Acinetobacter baumannii [33]): inactive; Activity (Acinetobacter baumannii [34]): inactive; Activity (Acinetobacter baumannii [35]): inactive; Activity (Acinetobacter baumannii [36]): inactive; Activity (Escherichia coli [37]): Active; Activity (Escherichia coli [38]): inactive; Activity (Escherichia coli [39]): inactive; fold change (FC) (Escherichia coli [21]): 1; MIC (Acinetobacter baumannii [22]): 16 µg/mL; MIC (Acinetobacter baumannii [23]): 16 µg/mL; MIC (Escherichia coli [24]): 16 µg/mL; MIC (Escherichia coli [25]): 16 µg/mL; fold change (FC) (Acinetobacter baumannii [26]): 2; fold change (FC) (Acinetobacter baumannii [27]): 64; fold change (FC) (Escherichia coli [28]): 2; fold change (FC) (Escherichia coli [29]): 8; viability at 9 µM [30]: 46.7%; viability at 9 µM [31]: 76%
